One test has as its system skin. Put plainly: Topical rejuvenation of dermal tissue. The format is in vivo. The note with it: aged mice, topical non-transdermal formulation. Here is the method:
To further assess the effects of in vivo administration of CASIN on aging parameters in the skin, aged mice are treated with CASIN as described in Example 5. However, instead of intraperitoneal injection, CASIN is administered topically in a formulation designed for non-transdermal use. The treated and untreated aged and young mice are then tested for skin thickness and wound healing.

For another test, the system named is skin epithelium. Briefly: In vivo rejuvenation of skin epithelium (immunohistochemistry, skin thickness). Further details: species or system mice. Here is the method: To test the extent to which CASIN rejuvenates skin and intestinal epithelium in vivo, aged (22-24 month old B1 6) and young (10-12 week old B1 6) mice were injected with CASIN twice daily (2.4 mg/Kg in PBS and 15% EtOH). A group of control mice in each age group were not given the drug. The injections were given 6 hours apart for 5 days. After 28 days, the mice were sacrificed and skin and intestinal samples were processed for immunohistochemistry.
To further assess the effects of in vivo administration of CASIN on aging parameters in the skin, aged mice were treated with CASIN as described in Example 5. The treated and untreated aged and young mice were then tested for skin thickness.

The record followed here is US9980942B2, “Rejuvenation of precursor cells” (Children's Hospital Medical Center, priority 2012, dated 2018).

For the compound `OCCNC1CCCc2c1[nH]c1ccc(-c3ccccc3)cc21` (stereo not shown) [CASIN], the skin thickness entry in the test with skin and in the test with skin epithelium (aged mice treated as in Example 5) was “approximately equal to that of young mice” in each case. Besides, the wound healing entry in the test with skin is “respond similarly or nearly identical to the skin of young mice”. Besides, the “number and density of hair follicles” value in the test with skin epithelium (aged mice, 2.4 mg/Kg twice daily for 5 days, after 28 days, vs untreated aged mice) is listed as “marked improvement”.
